Earlier results, collected in US20130303466A1, “Chemosensory Receptor Ligand-Based Therapies” (ELCELYX THERAPEUTICS, INC., priority 2010, published 2013).

How the values were obtained:
[1] = system: GLP-1; conditions: rats; with administration of a DPP-IV inhibitor
[2] = system: gut hormone release; conditions: humans, instillation into the duodenum
[3] = target: T1, sweet receptor (Homo sapiens, UniProt Q7RTX0+Q8TE23); conditions: relative sweetness on a weight comparison basis to sucrose (= 1.0); ranges: relative sweetness varied with the concentration of sucrose; adapted from Kim et al., 2002
T1 sequence (Q8TE23 20-839): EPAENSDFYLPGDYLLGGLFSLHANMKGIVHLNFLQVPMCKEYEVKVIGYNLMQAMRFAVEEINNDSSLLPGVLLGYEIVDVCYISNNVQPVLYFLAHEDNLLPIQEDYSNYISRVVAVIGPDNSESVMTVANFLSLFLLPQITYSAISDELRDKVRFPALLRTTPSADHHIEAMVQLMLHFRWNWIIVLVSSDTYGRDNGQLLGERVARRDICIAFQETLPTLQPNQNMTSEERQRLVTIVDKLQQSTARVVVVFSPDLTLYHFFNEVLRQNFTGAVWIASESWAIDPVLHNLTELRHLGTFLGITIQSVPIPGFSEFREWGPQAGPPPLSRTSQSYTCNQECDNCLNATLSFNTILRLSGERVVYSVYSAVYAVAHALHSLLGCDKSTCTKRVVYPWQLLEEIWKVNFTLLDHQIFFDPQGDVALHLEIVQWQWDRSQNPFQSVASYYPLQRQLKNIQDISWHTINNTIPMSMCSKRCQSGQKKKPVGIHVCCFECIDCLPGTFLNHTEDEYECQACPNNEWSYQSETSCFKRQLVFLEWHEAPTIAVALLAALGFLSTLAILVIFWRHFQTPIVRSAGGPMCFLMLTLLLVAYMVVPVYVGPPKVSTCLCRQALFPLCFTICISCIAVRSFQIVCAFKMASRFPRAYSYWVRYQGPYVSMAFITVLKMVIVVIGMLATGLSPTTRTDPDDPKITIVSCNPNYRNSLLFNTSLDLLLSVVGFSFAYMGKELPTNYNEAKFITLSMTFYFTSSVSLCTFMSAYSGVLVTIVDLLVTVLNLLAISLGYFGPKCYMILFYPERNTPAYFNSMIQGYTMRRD
T1 sequence (Q7RTX0 21-852): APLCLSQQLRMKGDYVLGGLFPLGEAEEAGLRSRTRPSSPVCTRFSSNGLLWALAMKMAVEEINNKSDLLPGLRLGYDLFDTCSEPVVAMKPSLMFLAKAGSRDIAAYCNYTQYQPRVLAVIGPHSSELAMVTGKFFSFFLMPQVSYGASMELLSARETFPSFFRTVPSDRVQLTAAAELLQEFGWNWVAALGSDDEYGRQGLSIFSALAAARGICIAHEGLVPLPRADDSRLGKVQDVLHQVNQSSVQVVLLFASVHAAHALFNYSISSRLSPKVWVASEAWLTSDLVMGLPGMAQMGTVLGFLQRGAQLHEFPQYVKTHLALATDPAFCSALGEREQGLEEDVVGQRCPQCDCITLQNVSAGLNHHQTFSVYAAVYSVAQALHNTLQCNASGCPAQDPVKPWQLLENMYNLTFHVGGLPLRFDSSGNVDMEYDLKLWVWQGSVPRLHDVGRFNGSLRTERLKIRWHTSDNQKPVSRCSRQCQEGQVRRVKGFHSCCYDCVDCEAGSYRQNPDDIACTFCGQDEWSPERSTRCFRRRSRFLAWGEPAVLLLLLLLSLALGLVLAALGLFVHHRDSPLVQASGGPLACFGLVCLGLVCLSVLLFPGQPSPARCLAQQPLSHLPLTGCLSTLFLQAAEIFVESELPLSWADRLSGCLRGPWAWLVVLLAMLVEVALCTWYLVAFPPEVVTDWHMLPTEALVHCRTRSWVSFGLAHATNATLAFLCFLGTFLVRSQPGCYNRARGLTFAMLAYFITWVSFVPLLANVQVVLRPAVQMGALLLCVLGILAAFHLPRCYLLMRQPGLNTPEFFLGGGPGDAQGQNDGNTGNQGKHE

| Compound | Sweetness/potency [3] | also measured |
| --- | --- | --- |
| OCCN1C[C@H](O)[C@@H](O)[C@H](O)[C@H]1CO [miglitol] |  | increase in GLP-1 [1]: synergistic |
| OC[C@H]1O[C@H](O[C@]2(CCl)O[C@H](CCl)[C@@H](O)[C@@H]2O)[C@H](O)[C@@H](O)[C@H]1Cl [sucralose] |  | gut hormone release [2]: no effect |
| Rebaudioside C [Rebaudioside C (17)] | 30 |  |
| COc1ccc([C@H]2Cc3cccc(O)c3C(=O)O2)cc1O [Phyllodulcin (3), Phyllodulcin] | 400 |  |
| CC[C@@H](C)C(=O)O[C@@H](C)[C@]1(O)CC[C@]2(O)[C@@H]3CC[C@H]4C[C@@H](O[C@@H]5C[C@H](O)[C@H](O[C@H]6C[C@H](OC)[C@H](O[C@H]7C[C@@H](OC)[C@H](O[C@H]8C[C@@H](OC)[C@H](O[C@@H]9O[C@H](C)[C@@H](O[C@@H]%10O[C@H](CO)[C@@H](O)[C@H](O)[C@H]%10O)[C@H](OC)[C@H]9O)[C@@H](C)O8)[C@@H](C)O7)[C@@H](C)O6)[C@@H](C)O5)CC[C@]4(C)[C@H]3C[C@@H](OC(C)=O)[C@]12C [Telosmoside A15 (74), Telosmoside A15] | 1000 |  |
| C/C=C/c1ccc(OC)cc1 [trans-Anethole(78), trans-Anethole] | 13 |  |
| C[C@@H]1O[C@@H](O[C@H]2[C@H](Oc3cc(O)c(C(=O)CCc4ccc(O)cc4)c(O)c3)O[C@H](CO)[C@@H](O)[C@@H]2O)[C@H](O)[C@H](O)[C@H]1O [Naringin dihydrochalcone (81), Naringin dihydrochalcone] | 300 |  |
| CC1(C)[C@@H](O[C@H]2O[C@H](C(=O)O)[C@@H](O)[C@H](O)[C@H]2O[C@@H]2OC[C@H](O)[C@H](O)[C@H]2O)CC[C@]2(C)[C@H]3C(=O)C=C4[C@@H]5C[C@@](C)(C(=O)O)CC[C@]5(C)CC[C@@]4(C)[C@]3(C)CC[C@@H]12 [Araboglycyrrhizin (56), Araboglycyrrhizin] | 150 |  |
| COc1c(O)cc2c(c1O)C(=O)[C@H](OC(C)=O)[C@@H](c1ccc(O)cc1)O2 [(2R,3R)-2,3-Dihydro-5,7,4′-trihydroxy-6-methoxy-3-O-acetylflavonol] | 20 |  |

The next lines start with results.

| Sweetness/potency [3] | Compound | also measured |
| --- | --- | --- |
| 55 | C/C(=C\CO)CCC1=C(C=O)CC(OC2OCC(O)C(O)C2O)C2C(C)(CO)CCCC12C (centres unmarked) [Gaudichaudioside A (32), Gaudichaudioside A] |  |
| 5 | CC1(C)C[C@H]2C3=CC[C@@H]4[C@@]5(C)CC[C@H](O[C@@H]6O[C@H](CO[C@@H]7OC[C@H](O)[C@H](O)[C@H]7O[C@@H]7OC[C@@H](O)[C@H](O)[C@H]7O)[C@@H](O)[C@H](O)[C@H]6O)C(C)(C)[C@@H]5CC[C@@]4(C)[C@]3(C)C[C@@H](O)[C@@]23C[C@@H]1OC3=O [Albiziasaponin A (50), Albiziasaponin A] |  |
| 15 | COc1c(O)cc2c(c1O)C(=O)[C@H](O)[C@@H](c1ccc(O)c(O)c1)O2 [(2R,3R)-2,3-Dihydro-5,7,3′,4′-tetrahydroxy-6-methoxyflavonol] |  |
| 500 | Baiyunoside [Baiyunoside (30)] |  |
| 35 | Oc1ccc([C@H]2Oc3c(c(O)cc4c3[C@H]3c5c(O)cc(O)cc5O[C@@](c5ccc(O)cc5)(O4)[C@@H]3O)[C@H](c3c(O)cc(O)c4c3O[C@H](c3ccc(O)cc3)[C@@H](O)C4)[C@H]2O)cc1 [Selligueain A (96), Selligueain A] |  |
